The target of assay [1] is FRAP1/mTOR (Homo sapiens (Human), UniProt P42345). The experiment in a line: Test 2: mTOR Biochemical Assay (FRAP1/mTOR TR-FRET tracer assay). The assay is classed as binding. As to conditions: mTOR Kinase Tracer 314.
Protocol: IC50s for mTOR interacting compounds were assessed using the FRAP1/mTOR TR-FRET tracer assay (Invitrogen by Life Technologies). […] Compounds were serially diluted in DMSO (12-point, 4× dilution factor) and 1 μL of diluted compound was then added to each well and mixed by pipetting using a Biomek FX (Beckman Coulter).
Assay [2] deals with constitutively active mTOR. The assay is described as follows: Test 3: TSC Assay (high content imaging of phospho-S6 (240/244) in TSC1−/− MEFs). It is filed as cell-based. Conditions: Mus musculus, pS6 240/244 staining, 2 hrs compound treatment.
Protocol: This assay generates IC50 values for compounds that inhibit mTOR.
Quantification of pS6 Staining Using High-Content Imaging and Analysis
Day 0: Cell plating. Subconfluent TSC1−/− MEFs are harvested by trypsinization, resuspended in growth medium, and counted. […] The plates are briefly spun down and placed at 37° C. and 5% CO2. • 2. Day 1: Cell plates are washed into a PBS starve solution (contains glucose, sodium bicarbonate, HEPES and phenol red) using a 384-well plate washer. The wash protocol aspirates the volume down to 30 μL/well before dispensing 60 μL/well of the PBS starve solution. Aspiration and dispensing steps are repeated 8 times and a final volume of 30 μL/well is left. The cell plates are placed at 37° C. and 5% CO2 for 2 hrs. • Compound treatment. Compound dose responses are prepared in DMSO. The dose responses are then diluted 1:50 in medium. 10 ul of the diluted compound is added to 30 ul of cells, yielding a final 1:200 dilution of the original compound and final of 0.5% DMSO. Compound-treatments are performed in triplicates. The plates are placed at 37° C. and 5% CO2 for 2 hrs. Cells are then fixed by adding 10 μL/well 5× concentrated Mirsky's fixative. […] The cell plates are briefly spun down and incubated for 1 h at room temperature. Cells are then washed using a 384-well plate washer using a protocol which aspirates the volume down to 30 μL/well before dispensing 60 μL/well 1×TBS. Aspiration and dispensing steps are repeated 8 times and then an additional aspiration step leaves a final volume of 10 μL/well. Block buffer (1×TBS+0.1% Triton X-100+0.1% BSA) is then added at 25 μL/well and the plates are incubated at room temperature for 30 min. The cell plates are then aspirated down to 10 μL/well. […] Plates are incubated overnight at 4° C. • 3. […] The bottom of the plate is cleaned with 70% ethanol and then imaged using the InCell 1000 automated epifluorescence microscope. […] Cy5 images are acquired using an excitation of 620 nm (Chroma 620—60× filter), an emission of 700 nm (Chroma HQ700—75M filter) and an exposure time of 200 ms. A double band pass mirror is used for all images. • 4. Image analysis: The InCell Analysis software is used to analyze the images using the Dual Object algorithm. […] The Cy5 fluorescence intensity inside the collar is measured (cell intensity) and results are reported on an “Average per cell” basis. • 5. IC50 calculation: IC50s are calculated by plotting the cell intensity values on the y-axis with dose response values on the x-axis. IC50 values represent compound potency against mTOR.
The target of assay [3] is PI3Kα (Homo sapiens (Human), UniProt P42336). The experiment in a line: Test 1: PI3 Kinase Assay (PI3K KinaseGlo assay). It is filed as biochemical. Conditions: 1 μM ATP.
PI3Kα, sequence (P42336 other isoform, or with tags, fused parts or gaps): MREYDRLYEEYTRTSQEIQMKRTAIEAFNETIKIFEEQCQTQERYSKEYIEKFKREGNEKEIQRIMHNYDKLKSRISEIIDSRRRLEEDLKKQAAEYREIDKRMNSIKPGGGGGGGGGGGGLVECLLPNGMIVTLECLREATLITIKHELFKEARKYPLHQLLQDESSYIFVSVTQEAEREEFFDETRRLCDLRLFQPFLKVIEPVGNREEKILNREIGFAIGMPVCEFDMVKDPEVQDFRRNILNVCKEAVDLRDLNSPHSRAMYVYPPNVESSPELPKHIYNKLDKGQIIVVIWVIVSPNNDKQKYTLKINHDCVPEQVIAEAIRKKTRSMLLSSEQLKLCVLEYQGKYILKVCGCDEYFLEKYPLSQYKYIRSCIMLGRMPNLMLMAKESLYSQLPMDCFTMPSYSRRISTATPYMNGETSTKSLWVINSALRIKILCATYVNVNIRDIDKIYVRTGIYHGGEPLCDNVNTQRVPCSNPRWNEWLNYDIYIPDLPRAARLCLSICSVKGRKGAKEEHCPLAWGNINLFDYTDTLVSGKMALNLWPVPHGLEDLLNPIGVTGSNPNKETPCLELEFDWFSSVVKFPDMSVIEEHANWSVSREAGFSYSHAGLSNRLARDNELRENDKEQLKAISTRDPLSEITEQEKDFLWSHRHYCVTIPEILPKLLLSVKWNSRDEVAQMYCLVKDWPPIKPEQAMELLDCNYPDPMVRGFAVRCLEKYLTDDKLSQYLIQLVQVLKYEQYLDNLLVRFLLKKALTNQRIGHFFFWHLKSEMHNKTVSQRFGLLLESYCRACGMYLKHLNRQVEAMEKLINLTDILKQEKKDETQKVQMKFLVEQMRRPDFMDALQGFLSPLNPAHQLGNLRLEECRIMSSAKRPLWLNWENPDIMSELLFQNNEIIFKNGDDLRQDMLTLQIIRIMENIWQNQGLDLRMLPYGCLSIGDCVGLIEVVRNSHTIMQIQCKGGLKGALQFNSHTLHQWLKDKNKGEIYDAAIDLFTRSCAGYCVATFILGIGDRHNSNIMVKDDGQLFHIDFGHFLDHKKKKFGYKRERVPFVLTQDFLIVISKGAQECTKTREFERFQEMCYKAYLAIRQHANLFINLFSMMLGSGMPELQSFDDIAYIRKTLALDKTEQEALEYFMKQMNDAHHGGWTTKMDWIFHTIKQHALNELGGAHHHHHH
Protocol: L-a-phosphatidylinositol (PI), provided as 10 mg/ml solution in methanol, was transferred into a glass tube and dried under nitrogen beam. It was then resuspended in 3% OctylGlucoside (OG) by vortexing and stored at 4° C. The KinaseGlo Luminescent Kinase Assay (Promega, Madison/WI, USA) is a homogeneous HTS method of measuring kinase activity by quantifying the amount of ATP remaining in solution following a kinase reaction.
Kinase reactions were started by addition of 5 μl of ATP-mix containing in a final volume 10 μL 10 mM TRIS-HCl pH 7.5, 3 mM MgCl2, 50 mM NaCl, 0.05% CHAPS, 1 mM DTT and 1 μM ATP, and occurred at room temperature.
The PI3Kα construct is a fusion of p85α iSH2 domain and the respective p110 isoform. The p85α fragment and p110 isoform gene were generated by PCR from first strand cDNA generated by RT-PCR from commercial RNA from placenta, testis and brain as described below.
The p85 fragment was derived from plasmid p1661-2 digested with Nhe/Spe. The p110α fragment derived from its clone was verified by sequencing and used in LR410 as a SpeI/HindIII fragment. For the generation of the baculovirus expression vector LR410 the gateway LR reaction to transfer the insert into the Gateway adapted pBlueBac4.5 (Invitrogen) vector was used. The cloning vector pBlueBac4.5 (Invitrogen) was digested with Nhe/HindIII. […] The two reverse primers overlap and incorporate a 12×Gly linker and the N-terminal sequence of the p110α gene to the SpeI site. The PCR fragment was cloned into pCR2.1 TOPO (Invitrogen). Of the resulting clones, p1661-2 was determined to be correct by sequencing. This plasmid was digested with Nhe and SpeI and the resulting fragment was gel-isolated and purified for sub-cloning.
PI3Kα was purified in two chromatographic steps: immobilized metal affinity chromatography (IMAC) on a Ni sepharose resin (GE Healthcare) and gel filtration utilizing a Superdex 200 26/60 column (GE Healthcare). All buffers were chilled to 4° C. and lysis was performed chilled on ice. Column fractionation was performed at room temperature.
Assay [4] concerns H4 mCherry-GFP-LC3 cells. The experiment in a line: Test 4: Autophagy Assay (mCherry-GFP-LC3 reporter, high-content imaging). It is filed as cell-based. Conditions: Homo sapiens, 16-18 h. From the text: Autophagy is a catabolic pathway that degrades bulk cytosol in lysosomal compartments enabling amino acids and fatty acids to be recycled. […] To quantify autophagy induction by mTOR inhibitors, we use a mCherry-GFP-LC3 reporter which is amenable to retroviral delivery into mammalian cells, stable expression and analysis by fluorescence microscopy.
Described hereinafter is an imaging protocol and image recognition algorithm to visualize and measure changes in the autophagic pathway.
Quantification of Autophagy Using High-Content Imaging and Analysis
• 1. Day 0: Cell plating. Subconfluent H4 mCherry-GFP-LC3 cells are harvested by trypsinization, resuspended in growth medium, and counted (H4 cells: Human neuroglioma cell line (ATCC)). A cell suspension of 66′000 cells/mL is prepared and 30 μL are added into the wells of a 384-well plate using an electronic multichannel pipette. […] The cell plates are briefly spun down and placed at 37° C. and 5% CO2. • 2. Day 1: Compound treatment. Compound dose responses are prepared in DMSO. The dose responses are then diluted 1:50 in medium. 10 ul of the diluted compound is added to 30 ul of cells, yielding a final 1:200 dilution of the original compound and final of 0.5% DMSO. Compound-treatments are performed in triplicates. The 384-well plates are placed at 37° C. and 5% CO2. Compound treatment is performed for 16-18 h (see Note 1). • 3. Day 2: Cell fixation. Cells are fixed by adding 10 μL/well 5× concentrated Mirsky's fixative supplemented with 25 μg/mL Hoechst33342. […] The 384-well plate is briefly spun down and incubated for 1 h at room temperature. Cells are then washed using a 384-well plate washer using a protocol which aspirates the volume down to 10 μL/well before dispensing 100 μL/well 1×TBS. Aspiration and dispensing steps are repeated 4 times and a final volume of 100 μL/well is left. The plate is sealed using an adhesive PCR foil. • 4. Imaging. The bottom of the plate is cleaned with 70% ethanol and then imaged using the InCell 1000 automated epifluorescence microscope. 20× magnification is used and 4 different areas (fields) are imaged per well, this typically captures a total of around 400 cells per well. Hoechst33342 images are acquired using an excitation of 360 nm (D360—40× filter), an emission of 460 nm (HQ460—40M filter) and an exposure time of 150 ms. GFP images are acquired using an excitation of 475 nm (S47520× filter), an emission of 535 nm (HQ535—50M filter) and an exposure time of 1 s. mCherry images are acquired using an excitation of 535 nm (HQ535—50× filter), an emission of 620 nm (HQ620—60M filter) and an exposure time of 1 s. A quadruple band pass mirror is used for all images. • 5. Image analysis. The InCell Analysis software is used to analyze the images using the Multi Target Analysis algorithm. First, nuclei are detected in the Hoechst33342 image using top-hat segmentation and a minimal nuclear area of 50 μm^2. Cells are defined using a collar of 10 μm around the nuclei. Second, puncta (organelles) are identified in the mCherry image inside the cells using multi-top-hat segmentation. Third, the mask of the mCherry puncta is transferred onto the GFP image. Fourth, the GFP fluorescence intensity inside the mCherry puncta mask is measured (reference intensity). • 6. The ‘organelles’ parameter reflects mCherry-positive puncta of the mCherry-GFP-LC3 reporter and is used to calculate ‘LC3 puncta/cell’. For this purpose, the number of organelles is calculated per cell and averaged over all the cells in a given well (average per cell basis). mCherry-positive LC3 puncta numbers (y-axis) are plotted against the compound dose response values (x-axis) and EC50 values are calculated for each compound. EC50 values represent compound potency in terms of autophagy activation (e.g. increase in mCherry-positive LC3 puncta count). Notes • 1. Autophagy-modulation and redistribution of mCherry-GFP-LC3 can be already observed after a compound treatment time of 3-4 h. […]

[5] abbreviates: Table 1, mCherry-positive LC3 puncta/cell.
Setting [6] is: Table 4 (unit inferred), mCherry-positive LC3 puncta/cell.

FRAP1/mTOR, sequence (P42345 1360-2549): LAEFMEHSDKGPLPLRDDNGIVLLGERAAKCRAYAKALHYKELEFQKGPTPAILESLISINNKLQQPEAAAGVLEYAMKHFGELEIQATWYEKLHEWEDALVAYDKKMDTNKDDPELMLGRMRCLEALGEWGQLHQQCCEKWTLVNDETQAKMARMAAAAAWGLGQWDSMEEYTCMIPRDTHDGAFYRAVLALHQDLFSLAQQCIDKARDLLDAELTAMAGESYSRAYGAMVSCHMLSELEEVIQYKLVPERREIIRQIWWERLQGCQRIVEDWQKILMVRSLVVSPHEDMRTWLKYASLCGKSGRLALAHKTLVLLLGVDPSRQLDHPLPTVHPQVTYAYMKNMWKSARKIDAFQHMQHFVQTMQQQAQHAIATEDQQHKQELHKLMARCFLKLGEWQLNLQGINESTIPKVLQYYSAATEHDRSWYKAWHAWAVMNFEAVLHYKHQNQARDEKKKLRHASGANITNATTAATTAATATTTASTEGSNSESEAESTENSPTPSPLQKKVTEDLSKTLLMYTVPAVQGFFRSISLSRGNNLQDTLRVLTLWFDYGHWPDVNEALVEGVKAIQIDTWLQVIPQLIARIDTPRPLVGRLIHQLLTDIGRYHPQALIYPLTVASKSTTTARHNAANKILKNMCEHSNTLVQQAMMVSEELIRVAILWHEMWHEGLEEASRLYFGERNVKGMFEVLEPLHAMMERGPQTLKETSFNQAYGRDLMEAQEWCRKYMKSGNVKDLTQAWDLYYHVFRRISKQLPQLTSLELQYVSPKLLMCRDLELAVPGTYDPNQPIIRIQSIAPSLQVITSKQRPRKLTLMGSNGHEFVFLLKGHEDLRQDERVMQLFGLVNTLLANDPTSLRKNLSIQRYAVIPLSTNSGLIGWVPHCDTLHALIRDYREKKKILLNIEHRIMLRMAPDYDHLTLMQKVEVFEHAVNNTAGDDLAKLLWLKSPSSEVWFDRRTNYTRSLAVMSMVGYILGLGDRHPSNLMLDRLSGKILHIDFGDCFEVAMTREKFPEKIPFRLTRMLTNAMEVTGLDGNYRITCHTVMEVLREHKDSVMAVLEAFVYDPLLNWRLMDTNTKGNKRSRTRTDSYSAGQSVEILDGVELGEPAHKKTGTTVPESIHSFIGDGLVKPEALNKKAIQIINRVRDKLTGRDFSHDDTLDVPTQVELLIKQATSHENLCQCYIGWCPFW

For `COC1CCN(c2nc(N3CCOCC3)c3nc(-c4cccc5[nH]ccc45)[nH]c3n2)CC1` [Example 25, 8-(1H-Indol-4-yl)-2-(4-methoxy-piperidin-1-yl)-6-morpholin-4-yl-9H-purine], the IC50 in assay [1] was 172 nM; in assay [2], 452 nM; in assay [3], 2070 nM. This compound also displayed an EC50 in assay [4] (setting [5]) greater than 700 nM.
For `c1cc(-c2nc3c(N4CCOCC4)nc(N4CCOCC4)nc3[nH]2)c2cn[nH]c2c1` [Example 27, 8-(1H-Indazol-4-yl)-2,6-di-morpholin-4-yl-9H-purine] the same measures were 340 nM, 7190 nM, 40 nM and 5930 nM.
On to `C[C@H]1COCCN1c1nc(N2CCOCC2)c2nc(-c3ccc4cc[nH]c4c3)[nH]c2n1` [Example 49], for which the IC50 amounted to 370 nM in assay [1], 678 nM in assay [2] and 4430 nM in assay [3]. Moreover, the concentration for a half-maximal effect (EC50) in assay [4] (setting [6]) was greater than 500 nM.
For the compound `COc1cc(CO)cc(-c2nc3c(N4CCOC[C@@H]4C)nc(N4CCOC[C@@H]4C)nc3[nH]2)c1` [Example 17, {3-[2,6-Bis-((S)-3-methyl-morpholin-4-yl)-9H-purin-8-yl]-5-methoxy-phenyl}-methanol], the concentration for half-maximal inhibition (IC50) came out at 399 nM in assay [1], 1510 nM in assay [2] and 400 nM in assay [3]. In assay [4] (setting [5]), this compound yielded an EC50 of 3190 nM.
As for `c1cc2ccc(-c3nc4c(N5C6CCC5COC6)nc(N5CCOCC5)nc4[nH]3)cc2[nH]1` [Example 53, 8-(1H-Indol-6-yl)-2-morpholin-4-yl-6-(3-oxa-8-aza-bicyclo[3.2.1]oct-8-yl)-9H-purine], the concentration for half-maximal inhibition (IC50) was 190 nM in assay [1], 528 nM in assay [2] and greater than 9100 nM in assay [3]. For the same compound, the EC50 in assay [4] (setting [6]) was found to be 782 nM.
For the compound `C[C@H]1COCCN1c1nc(N2CCOC[C@@H]2C)c2nc(-c3ccnc4[nH]ccc34)[nH]c2n1` [Example 3, 2,6-Bis-((S)-3-methyl-morpholin-4-yl)-8-(1H-pyrrolo[2,3-b]pyridin-4-yl)-9H-purine], the IC50 in assay [1] was 510 nM; in assay [2] it was 2320 nM; in assay [3], 6530 nM. In assay [4] (setting [5]), this compound yielded a 50% effective concentration (EC50) greater than 2000 nM.
For `C[C@@H]1COCCN1c1nc(N2CCOC[C@H]2C)c2nc(-c3cc(CO)ccc3F)[nH]c2n1` [Example 19, {3-[2,6-Bis-((R)-3-methyl-morpholin-4-yl)-9H-purin-8-yl]-4-fluoro-phenyl}-methanol] the same measures were 134 nM, 300 nM, 170 nM and 2000 nM.
In the case of `C[C@@H]1COCCN1c1nc(N2CC3CCC(C2)O3)nc2[nH]c(-c3cccc4[nH]ccc34)nc12` [Example 46, 8-(1H-Indol-4-yl)-6-((R)-3-methyl-morpholin-4-yl)-2-(8-oxa-3-aza-bicyclo[3.2.1]oct-3-yl)-9H-purine], the half-inhibitory concentration (IC50) in assay [1] is 30 nM; in assay [2], 100 nM; in assay [3] it was 580 nM. Moreover, in assay [4] (setting [6]), the response was half-maximal at 171 nM (EC50).
With `c1cc2ccc(-c3nc4c(N5C[C@@H]6C[C@H]5CO6)nc(N5CCOCC5)nc4[nH]3)cc2[nH]1` [Example 48, 8-(1H-Indol-6-yl)-2-morpholin-4-yl-6-(1S,4S)-2-oxa-5-aza-bicyclo[2.2.1]hept-5-yl-9H-purine], the IC50 in assay [1] came to 1010 nM; in assay [2], 1460 nM; in assay [3], 4300 nM. Besides, the EC50 in assay [4] (setting [6]) worked out at 6410 nM.
For the compound `C[C@@H]1COCCN1c1nc(N2CCOC[C@H]2C)c2nc(-c3cccc4c3CCN4)[nH]c2n1` [Example 42, 8-(2,3-Dihydro-1H-indol-4-yl)-2,6-bis-((R)-3-methyl-morpholin-4-yl)-9H-purine], the results for the half-maximal inhibitory concentration (IC50) in assay [1], in assay [2] and in assay [3] were 40 nM, 99 nM and 4910 nM, respectively. This compound also returned an EC50 in assay [4] (setting [6]) of 4630 nM.
Turning to `C[C@@H]1CN(c2nc(N3CCOCC3)c3nc(-c4cccc(O)c4)[nH]c3n2)C[C@H](C)O1` [Example 1, 3-[2-((2S,6R)-2,6-Dimethyl-morpholin-4-yl)-6-morpholin-4-yl-9H-purin-8-yl]-phenol], the figures for the IC50 in assay [2] and in assay [3] were 118 nM and 20 nM, respectively.
As for `C[C@H]1COCCN1c1nc(N2CCOC[C@@H]2C)c2nc(-c3ccc4[nH]c(=O)[nH]c4c3)[nH]c2n1` [Example 6, 5-[2,6-Bis-((S)-3-methyl-morpholin-4-yl)-9H-purin-8-yl]-1,3-dihydro-benzoimidazol-2-one], the results for the IC50 in assay [1], in assay [2] and in assay [3] were 30 nM, 1450 nM and greater than 9100 nM, respectively.
Consider `OCc1cccc(-c2nc3c(N4CCOCC4)nc(N4CCOCC4)nc3[nH]2)c1` [Example 37, [3-(2,6-Di-morpholin-4-yl-9H-purin-8-yl)-phenyl]-methanol], for which the IC50 in assay [2] is 620 nM; in assay [3], 10 nM.
For `Oc1ccccc1-c1nc2c(N3CCOCC3)nc(N3CCOCC3)nc2[nH]1` [Example 38, 2-(2,6-Di-morpholin-4-yl-9H-purin-8-yl)-phenol] the same measures were greater than 50000 nM and 480 nM.
For the compound `C[C@@H]1CN(c2nc(N3CCOCC3)c3nc(-c4cccc(N)c4)[nH]c3n2)C[C@H](C)O1` [Example 32, 3-[2-((2S,6R)-2,6-Dimethyl-morpholin-4-yl)-6-morpholin-4-yl-9H-purin-8-yl]-phenylamine], the IC50 in assay [1] amounted to 1040 nM; in assay [2] it was 1040 nM; in assay [3], 2520 nM.
With `Oc1cccc(-c2nc3c(N4CCOCC4)nc(N4CCOCC4)nc3[nH]2)c1` [Example 36, 3-(2,6-Di-morpholin-4-yl-9H-purin-8-yl)-phenol], the IC50 in assay [2] came to 73 nM; in assay [3] it was 20 nM.
Taken in the same sequence, the figures for `Cc1cc2c(-c3nc4c(N5CCOCC5)nc(N5CCOCC5)nc4[nH]3)cccc2[nH]1` [Example 31, 8-(2-Methyl-1H-indol-4-yl)-2,6-di-morpholin-4-yl-9H-purine] were 315 nM and 590 nM.
In the case of `C[C@H]1COCCN1c1nc(N2CCOCC2)nc2[nH]c(-c3ccc4cc[nH]c4c3)nc12` [Example 24, 8-(1H-Indol-6-yl)-6-((S)-3-methyl-morpholin-4-yl)-2-morpholin-4-yl-9H-purine], the values for the IC50 in assay [1], in assay [2] and in assay [3] were 85 nM, 632 nM and 8540 nM, respectively.
With `C[C@@H]1CN(c2nc(N3CCOCC3)c3nc(-c4ccccc4CO)[nH]c3n2)C[C@H](C)O1` [Example 34, {2-[2-((2S,6R)-2,6-Dimethyl-morpholin-4-yl)-6-morpholin-4-yl-9H-purin-8-yl]-phenyl}-methanol], the values for the IC50 in assay [2] and in assay [3] were 8000 nM and greater than 9100 nM, respectively.
As to `COc1ccc(-c2nc3c(N4CCOC[C@@H]4C)nc(N4CCOC[C@@H]4C)nc3[nH]2)cc1CO` [Example 7, {5-[2,6-Bis-((S)-3-methyl-morpholin-4-yl)-9H-purin-8-yl]-2-methoxy-phenyl}-methanol], the half-inhibitory concentration (IC50) came out at 455 nM in assay [2] and 2540 nM in assay [3].
Taken in the same sequence, the figures for `OCc1ccccc1-c1nc2c(N3CCOCC3)nc(N3CCOCC3)nc2[nH]1` [Example 35, [2-(2,6-Di-morpholin-4-yl-9H-purin-8-yl)-phenyl]-methanol] were 4010 nM and 5870 nM.

The record behind these values is patent publication US8987257B2 (Novartis AG, priority 2011, dated 2015).
